Source: patent publication US5476847A, “Derivatives of phosphinic acid useful as endothelin converting enzyme inhibitors” (priority 1994, dated 1995)

What follows are compounds tested against T1, ECE (Cavia porcellus, UniProt P97739) (assay: In vitro ECE assay (inhibition of [125I]BET-1 to [125I]ET-1 conversion, lubrol-treated guinea pig lung membrane)). Details: L-GPLGM, 2 h preincubation at 4° C., 500 pM [125I]BET-1, table of examples, read-out: ECE IC50.
T1 construct: tissue Keystone Biologicals, Cleveland, Ohio; host or cells: frozen guinea pig lungs; lubrol PX-treated lung membranes
T1 sequence (P97739 1-754): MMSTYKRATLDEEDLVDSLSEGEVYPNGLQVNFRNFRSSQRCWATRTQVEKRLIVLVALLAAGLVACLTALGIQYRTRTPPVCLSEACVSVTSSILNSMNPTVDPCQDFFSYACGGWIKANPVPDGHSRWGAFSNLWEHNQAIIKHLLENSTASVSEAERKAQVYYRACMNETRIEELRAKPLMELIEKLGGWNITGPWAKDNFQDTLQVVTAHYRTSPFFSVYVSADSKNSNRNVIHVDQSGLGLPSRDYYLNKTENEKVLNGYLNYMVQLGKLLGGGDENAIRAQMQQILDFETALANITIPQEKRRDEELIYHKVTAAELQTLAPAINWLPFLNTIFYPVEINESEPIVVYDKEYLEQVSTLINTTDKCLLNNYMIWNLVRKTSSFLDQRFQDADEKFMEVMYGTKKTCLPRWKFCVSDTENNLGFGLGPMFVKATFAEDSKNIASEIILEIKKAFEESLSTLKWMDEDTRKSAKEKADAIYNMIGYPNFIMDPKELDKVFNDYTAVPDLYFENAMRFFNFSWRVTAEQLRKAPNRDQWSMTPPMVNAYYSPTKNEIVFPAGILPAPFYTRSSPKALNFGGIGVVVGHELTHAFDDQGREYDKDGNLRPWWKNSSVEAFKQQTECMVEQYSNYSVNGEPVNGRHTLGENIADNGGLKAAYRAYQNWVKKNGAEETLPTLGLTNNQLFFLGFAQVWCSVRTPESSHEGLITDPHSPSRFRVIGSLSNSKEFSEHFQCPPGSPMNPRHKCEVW
Type: biochemical
Source text: The ECE assay is based on the quantitative determination of [^125 l]ET-1 released from [^125 l]BET-1 labeled on Tyrosine-13 by binding to the membrane-bound ET receptor. […] GPLGM was also found to contain a high density of ET receptors. Thus, this preparation was utilized as a source of both ECE and a saturating concentration of ET receptors for the quantitative determination of [251l]ET-1 from the conversion of [125l ]BET-1. Under selected experimental conditions of the ECE assay, specific [125l]ET-1 bound was directly related to ECE activity. Assays were carried out in the presence of varying concentrations of test compounds to evaluate their efficacy in inhibiting ECE activity.
Frozen guinea pig lungs (Keystone Biologicals,Cleveland, Ohio) are weighed and homogenized in 10 times gram tissue weight of solution A (50 mM Tris-HCl, pH 7.4, 0.25M sucrose, and 2 mM EDTA) using a Polytron tissue homogenizer (probe PTA-20S). Homogenization is repeated four times at speed setting seven each for 10 s and with 5-8 min intervals on ice in between homogenization. Homogenates are spun for 30 min at 2000 g (4100 rpm in an SS34 rotor or 3800 rpm in an SA-600 rotor). Supernatants containing membranes are carefully decanted and saved. Pellets are rehomogenized in solution A as described, and homogenates are spun at 2000 g for 30 min. Supernatants are removed, mixed with the supernatants from the first spin, and spun at 37000 rpm in a 45 Ti rotor (107022 g) for 60 min. Pellets containing membranes are suspended in solution B (10 mM Tris-HCl, pH 7.4, and 0.125M sucrose) using a Dounce homogenizer. Samples are divided into 1 ml fractions, rapidly frozen in a dry ice methanol bath, and stored at -80° C. All steps are carried out at 4° C.
GPLGM fractions prepared as described above are thawed and resuspended at a concentration of 1 mg membrane protein/mL in a solution containing 0.06% lubrol PX, 50 mM Tris-HCl (pH 7.4), and 100 mM NaCl. Stir the mixture for 1 h and then spin for 1 h at 37000 rpm in a 45 Ti rotor (107022 g). Discard the supernatants and resuspend the pellets in a solution containing 50 mM Tris-HCl (pH 7.4), and 100 mM NaCl using a Dounce homogenizer, and adjust the final volume to half the original volume. Spin the homogenates for 1 h at 37000 rpm in a 45 Ti rotor (107022 g). Suspend the membrane pellets in solution B and treat as described above. All steps are performed at 4° C.
ECE Assay: Samples of L-GPLGM containing 20 μg protein are incubated in a solution containing 100 mM Tris-HCl (pH 7), 100 mM NaCl, and 5 mg/ml BSA (Fraction V, 98-99% albumin) (Sigma Chemical Co.) at a final reaction volume of 100 μL. The ECE assay is initiated by the addition of [^125 l]BET-1 to obtain a final concentration of 500 pM. Reactions are carried out for 30 min at 37° C. Reactions are terminated by addition of 4 mL of solution C (10 mM Tris-HCl, pH 7.4, and 150 mM NaCl) at 4° C. followed by rapid filtration on Whatman GF/B glass microfiber filters. Filters are presoaked for 1 h at 4° C. in a solution containing 50 mM Tris-HCl (pH 7.4), 10 mg/mL BSA, and 0.1% sodium azide. Wash test tubes and filters four times with 4 mL of solution C at 4° C., and count radioactivity retained on the filters in a γ counter. Non-specific binding is determined in the presence of 1 μM of unlabeled ET-1 (Peninsula Laboratories, Inc., Belmont, Calif.) in the reaction mixture. All reactions are performed in duplicate.
To test the effect of test compounds on ECE activity, ECE assays are carried out in the presence of varying concentrations of the compounds. Assays are initiated following a 2 h incubation of L-GPLGM with the compound at 4° C. ECE activity in the presence of compounds is expressed as a percentage of control ECE activity of the membrane preparation, which is determined simultaneously.

Going from `CC(C)CC(CP(=O)(O)C(Cc1ccc2ccccc2c1)NC(=O)[C@H](CCCCNC(=O)OCc1ccccc1)NS(C)(=O)=O)C(=O)N[C@@H](Cc1c[nH]c2ccccc12)C(=O)O` (single isomer, unassigned) [Example 9A] to `CC(C)CC(CP(=O)(O)C(CC(C)C)NC(=O)[C@H](CCCCNC(=O)OCc1ccccc1)NS(C)(=O)=O)C(=O)N[C@@H](Cc1c[nH]c2ccccc12)C(=O)O` (single isomer, unassigned) [Example 10A], the IC50 falls from 65 nM to 40 nM (1.6-fold).

Compared with `CC(C)CC(CP(=O)(O)C(Cc1ccc2ccccc2c1)NC(=O)[C@H](CCCCNC(=O)OCc1ccccc1)NS(C)(=O)=O)C(=O)N[C@@H](Cc1c[nH]c2ccccc12)C(=O)O` (single isomer, unassigned) [Example 9B], `O=C(NC(Cc1ccc(OCc2ccccc2)cc1)P(=O)(O)CC1(C(=O)N[C@@H](Cc2c[nH]c3ccccc23)C(=O)O)CCCC1)OCc1ccccc1` (stereo partly drawn) [Example 1B] is 11-fold lower in IC50: 4500 nM for the first, 400 nM for the second.

Going from `CC(C)CC(CP(=O)(O)C(Cc1ccc2ccccc2c1)NC(=O)[C@H](CCCCNC(=O)OCc1ccccc1)NS(C)(=O)=O)C(=O)N[C@@H](Cc1c[nH]c2ccccc12)C(=O)O` (single isomer, unassigned) [Example 9C] to `COc1ccc(CC(NC(=O)OCc2ccccc2)P(=O)(O)CC2(C(=O)N[C@@H](Cc3c[nH]c4ccccc34)C(=O)O)CCCC2)cc1` (stereo partly drawn) [Example 1A], the IC50 falls from 4500 nM to 115 nM (39-fold).

In the case of `O=C(NC(Cc1ccccc1)P(=O)(O)CC1(C(=O)N[C@@H](Cc2c[nH]c3ccccc23)C(=O)O)CCCCCC1)OCc1ccccc1` (stereo partly drawn) [Example 1C], the IC50 is reported as 800 nM.

Same assay, conditions: L-GPLGM, table of additional compounds, read-out: IC50 (in vitro ECE inhibition activity)

Going from `CC(C)CC(CP(=O)(O)C(Cc1ccc2ccccc2c1)NC(=O)C(CCCCNC(=O)OCc1ccccc1)NC(=O)C(CC(C)C)NS(C)(=O)=O)C(=O)N[C@@H](Cc1c[nH]c2ccccc12)C(=O)O` (stereo partly drawn) to `CC(C)C(CP(=O)(O)C(Cc1ccc2ccccc2c1)NC(=O)C(CCCCNC(=O)OCc1ccccc1)NS(C)(=O)=O)C(=O)N[C@@H](Cc1c[nH]c2ccccc12)C(=O)O` (stereo partly drawn), the IC50 rises from 230 nM to 800 nM (3.5-fold).

Compared with `CCC(C)C(NC(=O)OCc1ccccc1)C(=O)NC(Cc1ccccc1)P(=O)(O)CC(C(=O)N[C@@H](Cc1c[nH]c2ccccc12)C(=O)O)C(C)C` (stereo partly drawn), `CC(C)C(CP(=O)(O)C(Cc1ccccc1)NC(=O)OCc1ccccc1)C(=O)N[C@@H](Cc1c[nH]c2ccccc12)C(=O)O` (stereo partly drawn) [Cbz, C6 H5CH2, H, iso-propyl] is 3.2-fold higher in IC50: 400 nM for the first, 1300 nM for the second.

Compared with `CC(C)C(CP(=O)(O)C(Cc1ccccc1)NC(=O)C(CCCCNC(=O)OCc1ccccc1)NC(=O)OCc1ccccc1)C(=O)N[C@@H](Cc1c[nH]c2ccccc12)C(=O)O` (stereo partly drawn), `CC(C)C(CP(=O)(O)C(Cc1ccccc1)NC(=O)C(CCCCNC(=O)OCc1ccccc1)NS(C)(=O)=O)C(=O)N[C@@H](Cc1c[nH]c2ccccc12)C(=O)O` (single isomer, unassigned) [listing 1 of 2 here] is 2.8-fold lower in IC50: 1100 nM for the first, 390 nM for the second. The second is the more potent here.

Going from `CCC(C)C(N)C(=O)NC(Cc1ccccc1)P(=O)(O)CC(C(=O)N[C@@H](Cc1c[nH]c2ccccc12)C(=O)O)C(C)C` (stereo partly drawn) to `CC(C)C(CP(=O)(O)C(Cc1ccccc1)NC(=O)C(CCCN)NS(C)(=O)=O)C(=O)N[C@@H](Cc1c[nH]c2ccccc12)C(=O)O` (stereo partly drawn), the IC50 falls from 1600 nM to 550 nM (2.9-fold).

Going from `CC(C)CC(CP(=O)(O)C(Cc1ccccc1)NC(=O)C(CC(C)C)NC(=O)OCc1ccccc1)C(=O)N[C@@H](Cc1c[nH]c2ccccc12)C(=O)O` (stereo partly drawn) to `CC(C)CC(CP(=O)(O)C(Cc1ccccc1)NC(=O)C(CCCCNC(=O)OCc1ccccc1)NS(C)(=O)=O)C(=O)N[C@@H](Cc1c[nH]c2ccccc12)C(=O)O` (stereo partly drawn), the IC50 rises from 160 nM to 500 nM (3.1-fold). The first is the more potent here.

First: CC(C)CC(CP(=O)(O)C(CC(C)C)NC(=O)C(CCCCNC(=O)OCc1ccccc1)NS(C)(=O)=O)C(=O)N[C@@H](Cc1c[nH]c2ccccc12)C(=O)O (stereo partly drawn)
Second: CC(C)CC(NC(=O)C(CCCCNC(=O)OCc1ccccc1)NS(C)(=O)=O)P(=O)(O)CC1(C(=O)N[C@@H](Cc2c[nH]c3ccccc23)C(=O)O)CCCC1 (stereo partly drawn)
The IC50 of the first is 5.4-fold higher: 1400 nM for the first, 260 nM for the second. The second is the more potent here.

Compared with `CC(C)C(CP(=O)(O)C(Cc1ccccc1)NC(=O)C(CCCCN)NS(C)(=O)=O)C(=O)N[C@@H](Cc1c[nH]c2ccccc12)C(=O)O` (stereo partly drawn), `CC(C)C(CP(=O)(O)C(Cc1ccccc1)NC(=O)C(CCCCNC(=O)OCc1ccccc1)NS(C)(=O)=O)C(=O)N[C@@H](Cc1c[nH]c2ccccc12)C(=O)O` (single isomer, unassigned) [listing 2 of 2 here] is 3-fold higher in IC50: 500 nM for the first, 1500 nM for the second.

Compared with `CC(C)CC(CP(=O)(O)C(Cc1ccc2ccccc2c1)NC(=O)C(CCCCN)NS(C)(=O)=O)C(=O)N[C@@H](Cc1c[nH]c2ccccc12)C(=O)O` (single isomer, unassigned) [listing 1 of 3 here], `CC(C)CC(CP(=O)(O)C(Cc1ccc2ccccc2c1)NC(=O)OCc1ccccc1)C(=O)N[C@@H](Cc1c[nH]c2ccccc12)C(=O)O` (stereo partly drawn) [Cbz, 2-naphthylmethyl, H, iso-butyl] is 11-fold higher in IC50: 27 nM for the first, 300 nM for the second.

Compared with `CC(C)CC(CP(=O)(O)C(Cc1ccc2ccccc2c1)NC(=O)C(CCCCN)NS(C)(=O)=O)C(=O)N[C@@H](Cc1c[nH]c2ccccc12)C(=O)O` (single isomer, unassigned) [listing 2 of 3 here], `CC(C)CC(CP(=O)(O)C(CCCCN)NC(=O)OCc1ccccc1)C(=O)N[C@@H](Cc1c[nH]c2ccccc12)C(=O)O` (stereo partly drawn) [Cbz, NH 2(CH2)4, H, iso-butyl] is 6.7-fold higher in IC50: 60 nM for the first, 400 nM for the second. The first is the more potent here.

Going from `CC(C)CC(CP(=O)(O)C(Cc1ccc2ccccc2c1)NC(=O)C(CCCCN)NS(C)(=O)=O)C(=O)N[C@@H](Cc1c[nH]c2ccccc12)C(=O)O` (single isomer, unassigned) [listing 3 of 3 here] to `CC(C)CC(CP(=O)(O)C(CCCCO)NC(=O)OCc1ccccc1)C(=O)N[C@@H](Cc1c[nH]c2ccccc12)C(=O)O` (stereo partly drawn) [Cbz, HO(CH2)4, H, iso-butyl], the IC50 rises from 68 nM to 200 nM (2.9-fold).

First: O=C(NC(Cc1ccc2ccccc2c1)P(=O)(O)CC1(C(=O)N[C@@H](Cc2c[nH]c3ccccc23)C(=O)O)CCCC1)OCc1ccccc1 (stereo partly drawn) [Cbz, 2-naphthylmethyl, R3 + R4 = (CH2)4]
Second: O=C(NC(Cc1ccccc1)P(=O)(O)CC1(C(=O)N[C@@H](Cc2c[nH]c3ccccc23)C(=O)O)CCCC1)OCc1ccccc1 (stereo partly drawn) [Cbz, C6 H5CH2, R3 + R4 = (CH2)4]
The IC50 of the first is 2.6-fold higher: 500 nM for the first, 190 nM for the second.

Work on `CC(C)CC(CP(=O)(O)C(CC1CCCC1)NC(=O)OCc1ccccc1)C(=O)N[C@@H](Cc1c[nH]c2ccccc12)C(=O)O` (stereo partly drawn) [Cbz, cyclopentylmethyl, H, iso-butyl] yielded an IC50 of 1000 nM.
